Measured values taken from US7563935B2, “Crystal forms of astaxanthin” (Phares Pharmaceutical Research N.V. et al., priority 2005, dated 2009).

Experiments:
Format in all cases: physicochemical
[1] = Stability of the crystal in the dry form
[2] = Solubility and rate of dissolution in organo-solvents or oils (comparison of crystal forms); settings: Form I vs Form II
[3] = Solubility profile in dichloromethane; settings: 20° C.-25° C.

stability [1] | rate of dissolution in organo-solvents or oils relative to the other crystal form [2] | solubility in organo-solvents or oils relative to the other crystal form [2] | solubility profile in dichloromethane [3] | SMILES
stable in the dry form | higher | higher solubility | 35 to 45 g/L | CC1=C(/C=C/C(C)=C/C=C/C(C)=C/C=C/C=C(C)/C=C/C=C(C)/C=C/C2=C(C)C(=O)C(O)CC2(C)C)C(C)(C)CC(O)C1=O (stereo not drawn) [Crystal Form I, 3,3′-dihydroxy-β,β-carotene-4,4′-dione]
– | – | lower solubility | 10-30 g/l | CC1=C(/C=C/C(C)=C/C=C/C(C)=C/C=C/C=C(C)/C=C/C=C(C)/C=C/C2=C(C)C(=O)C(O)CC2(C)C)C(C)(C)CC(O)C1=O (stereo not drawn) [Crystal Form II, 3,3′-dihydroxy-β,β-carotene-4,4′-dione]
